Literature values in patent US8507652B2, “Pharmaceutical composition, dressing and method for treating skin lesion, intermediate composition and process for preparing said dressing, and use of cerium salt associated with a collagen matrix” (priority 2008, dated 2013).

What was measured:
[1] = tested on: 39 bacteria species; settings: 39 bacteria species studied, in vitro
[2] = tested on: interleucin-6; settings: lesions treated with cerium nitrate
[3] = tested on: TNF-[…]; settings: lesions treated with cerium nitrate

O=[N+]([O-])[O-].O=[N+]([O-])[O-].O=[N+]([O-])[O-].[Ce+3] [cerium nitrate]
concentration inhibiting growth [1]: ~0.0004 M | interleucin-6 level [2]: increase | TNF-[…] level [3]: reduction
